# Earlier results in patent publication US9457010B2, “Compositions for use in treating or preventing metabolic stress-induced lung injury and methods for increasing physical capacity of mammalian livestock” (Nutri-fit GmbH & Co. KG, priority 2009, dated 2016).
# System: pulmonary function
# Conditions: 3 weeks isocaloric diet; endotoxin challenge
smiles,measurement,value
CCCCC/C=C\C/C=C\CCCCCCCC(=O)O [linoleate],histological evidence in lung,"vascular congestion, intra-alveolar edema and alveolar septa thickening"
